This note sets out measurements from paper PMC8453635, “Piperidine Azasugars Bearing Lipophilic Chains: Stereoselective Synthesis and Biological Activity as Inhibitors of Glucocerebrosidase (GCase)” (The Journal of Organic Chemistry, 2021).

As a reminder, the inhibition is the share of the control response that was lost under treatment.

The target of this assay is T1, β-mannosidase (Homo sapiens, UniProt O00462).
T1 construct: from leukocytes isolated from healthy donors (controls); from tissue; host or cells: leukocytes from healthy donors, sonicated homogenate
T1 sequence (O00462 18-879): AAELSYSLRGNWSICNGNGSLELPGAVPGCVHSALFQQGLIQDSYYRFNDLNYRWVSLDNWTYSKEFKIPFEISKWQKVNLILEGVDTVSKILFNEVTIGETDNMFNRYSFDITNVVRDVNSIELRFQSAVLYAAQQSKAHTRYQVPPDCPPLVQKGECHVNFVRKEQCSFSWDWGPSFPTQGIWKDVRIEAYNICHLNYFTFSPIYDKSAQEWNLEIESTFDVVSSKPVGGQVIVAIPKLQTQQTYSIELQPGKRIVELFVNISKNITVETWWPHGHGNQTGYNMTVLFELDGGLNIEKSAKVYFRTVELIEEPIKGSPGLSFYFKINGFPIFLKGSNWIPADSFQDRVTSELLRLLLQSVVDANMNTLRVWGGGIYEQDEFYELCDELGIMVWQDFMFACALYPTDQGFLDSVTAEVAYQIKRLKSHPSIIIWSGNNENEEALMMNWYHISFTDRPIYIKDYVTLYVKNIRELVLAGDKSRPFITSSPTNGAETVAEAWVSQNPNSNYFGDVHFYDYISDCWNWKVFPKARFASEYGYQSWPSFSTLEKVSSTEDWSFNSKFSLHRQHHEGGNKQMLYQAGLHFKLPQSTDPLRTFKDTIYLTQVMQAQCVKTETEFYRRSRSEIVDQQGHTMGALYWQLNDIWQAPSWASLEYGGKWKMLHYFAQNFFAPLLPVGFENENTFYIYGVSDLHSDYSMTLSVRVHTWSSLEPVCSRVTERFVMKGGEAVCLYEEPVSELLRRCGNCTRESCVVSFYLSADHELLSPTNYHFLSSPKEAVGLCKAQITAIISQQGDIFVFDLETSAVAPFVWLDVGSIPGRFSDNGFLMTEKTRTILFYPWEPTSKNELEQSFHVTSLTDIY
The experiment in a line: Human lysosomal glycosidase selectivity screening (leukocyte homogenate). Type of assay: biochemical. The following applies: 1 mM, read-out: percentage of inhibition, β-Man. As for the experimental part:
In order to avoid undesired inhibitory side effects of a potential new drug, it has to be selective for a given target. The selectivity of the newly synthesized compounds 14, 15, and 33·HCl toward GCase was then investigated, evaluating their inhibition at 1 mM concentration toward six other lysosomal glycosidases (namely, α-and β-mannosidases, α- and β-galactosidases, α-fucosidase, and α-glucosidase) in cell homogenates (leucocytes or lymphocytes) isolated from healthy donors. […] Indeed, only moderate inhibitory activity (ca. 50%) was found toward human β-galactosidase for both piperidines 14 and 15, while negligible inhibitory activity was detected in all other cases.
The effect of 1 mM concentration of 14, 15, and 33·HCl was assayed toward six lysosomal glycosidases other than GCase, namely, α-mannosidase, β-mannosidase, α-galactosidase, β-galactosidase, α-fucosidase from leukocytes isolated from healthy donors (controls) and α-glucosidase from lymphocytes isolated from healthy donors’ flesh blood (controls). Isolated leukocytes or lymphocytes were disrupted by sonication, and a micro BCA protein assay kit (Sigma-Aldrich) was used to determine the total protein amount for the enzymatic assay, according to the manufacturer’s instructions (for more details, see the Supporting Information section).
Selectivity of compounds 14, 15 and 33.HCl towards lysosomal enzymes.
The effect of 1 mM concentration of 14, 15 and 33.HCl was assayed towards six lysosomal glycosidases other than GCase, namely: α-mannosidase, β-mannosidase, α-galactosidase, β-galactosidase, α-fucosidase from leukocytes isolated from healthy donors (controls) and α-glucosidase from lymphocytes isolated from healthy donors’ flesh blood (controls). Isolated leukocytes or lymphocytes were disrupted by sonication, and a micro BCA protein assay kit (Sigma–Aldrich) was used to determine the total protein amount for the enzymatic assay, according to the manufacturer instructions. […]
Molecular Devices). Inhibition is given with respect to the control (without azasugar). Data are mean SD (n=3). […]
Inhibition is given with respect to the control (without azasugar). Data are mean SD (n=3). […]
(1 picture or pasted object on this page, not shown here) […]
α-Fucosidase activity was measured in a flat -bottomed 96 -well plate. Azasugar solution (3 μL), 4.29 μg/μL leukocytes homogenate 1:3 (7 μL), and substrate 4 -methylumbe lliferyl α-L-fucopyranoside (1.51 mM, 20 μL, Sigma –Aldrich) in Na phosphate/citrate buffer (0.2:0.1, M/M, pH 5.5) were incubated at 37 °C for 1 h. […]
Data are mean SD (n=3). S74 […]
α-Glucosidase activity was measured in a flat –bottomed 96 well plate. Azasugar solution (3 µL), 4.29 µg/µL lymphocytes homogenate (7µL) and 20 µL of substrate solution of 4 -methylumbelliferyl -α-D-glucopyranoside (Sigma -Aldrich) in Na a cetate buffer (0.2 M, pH 4.0) were incubated for 1 h at 37 °C. The reaction was stopped by the addition of a solution of sodium carbonate (200 µL; 0.5M, pH 10.7) containing Triton X -100 (0.0025 %), and the fluorescence of 4 -methylumbelliferone released by α-glucosidase activity was measured in […]
respect to the control (without azasugar). Data are means of 3 values. […]
Figure S 48. Activity of a panel of 6 hu man lysosomal glycosidases in the presence of compounds 14, 15 and 33.HCl (1 mM ). The corresponding calculated percentage of inhibition is indicated above each bar.
As to `CCCCCCCC[C@H]1[C@@H](O)[C@H](O)[C@H](O)CN1CCCCCCCC` [compound 14, (2S,3R,4R,5R)-1,2-Dioctylpiperidine-3,4,5-triol], the inhibition at 1000 µM came to 0%.

On to `CCCCCCCC[C@@H]1[C@@H](O)[C@H](O)[C@H](O)CN1CCCCCCCC` [compound 15, (2R,3R,4R,5R)-1,2-Dioctylpiperidine-3,4,5-triol], for which the inhibition at 1000 µM came to 1%.

Turning to `CCCCCCCC[C@@H]1[C@@H](O)[C@H](O)[C@H](O)CN1C(CCCCCCC)CCCCCCC.Cl` [compound 33·HCl, (2R,3R,4R,5R)-2-Octyl-1-(pentadecan-8-yl)-piperidine-3,4,5-triol Hydrochloride], the inhibition at 1000 µM amounted to 2%.
